The results in this text go back to US11952346B2, “Modulators of mas-related G-protein receptor X2 and related products and methods” (Escient Pharmaceuticals, Inc., priority 2020, dated 2024).

The assay has as its target T1, human MRGPRX2 (Homo sapiens, UniProt Q96LB1).
T1 construct: expressed in transfected cells
T1 sequence (Q96LB1 1-330): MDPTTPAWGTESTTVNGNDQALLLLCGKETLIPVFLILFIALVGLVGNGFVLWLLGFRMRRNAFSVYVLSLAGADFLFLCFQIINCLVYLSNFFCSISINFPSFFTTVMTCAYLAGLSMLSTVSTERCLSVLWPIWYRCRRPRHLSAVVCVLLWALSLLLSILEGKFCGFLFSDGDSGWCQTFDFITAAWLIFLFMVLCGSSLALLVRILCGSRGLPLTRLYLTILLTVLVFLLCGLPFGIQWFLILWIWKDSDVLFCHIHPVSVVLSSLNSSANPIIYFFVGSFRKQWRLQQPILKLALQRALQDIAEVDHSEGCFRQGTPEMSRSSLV
The assay can be described thus: MRGPRX2 antagonist activity, IP-One HTRF assay in CHO cells expressing human MRGPRX2 versus Cortistatin-14. In kind it is cell-based. As to the method:
CHO cells stably transfected to express human MRGPRX2 were maintained in an incubator at 37° C. with 5% CO2 and grown in F12 (HAM) media with 10% fetal bovine serum (FBS), 1% Glutamax, 1% penicillin/streptomycin, 800 μg/mL Geneticin (G418), and 300 μg/mL Hygromycin B. Cells were plated in a 384-well assay plate at 20,000 cells per well in 12 μL of Opti-MEM and kept in an incubator overnight. On the day of the assay, compounds solubilized at 10 mM in DMSO were added as a 10-point curve (30 uM final top concentration with 1:3 serial dilutions) using a Tecan D300E digital dispenser. Agonists were diluted in assay buffer (final concentrations of 5.7 mM Tris-HCl, 43 mM NaCl, 50 mM LiCI, pH=8) and 2 μL of the agonist Cortistatin-14 (CPC Scientific, catalog CORT-002) are added to each well. Final concentrations of agonists were […] Cortistatin-14. Final concentrations of DMSO were kept consistent across the plate. Plates were incubated in the dark for 1 hr at 37° C. and then for 1 hr at room temperature. IP-1 standards and HTRF detection reagents were added according to the IP-One—Gq Kit purchased from Cisbio (part number 621PAPEJ) and incubated in the dark for 1 hr at room temperature. The plate was read on a Molecular Devices SpectraMax iD5 plate reader. The HTRF ratio was calculated from the raw data and graphed using GraphPad Prism to calculate an IC50 value for each compound.
The activity ranges are denoted as follows: “+++++” denotes antagonist activity <100 nM; “++++” denotes antagonist activity between 100 and 500 nM; “+++” denotes activity between 501 and 1000 nM; “++” denotes activity between 1001 and 2500 nM; and “+” denotes activity >2500 nM.

Setting [1] is: CHO cells stably expressing human MRGPRX2, versus 0.3 uM Cortistatin-14 agonist, IP-1 HTRF readout, read-out: MRGPR2 Antagonist Activity.

The structures appear in SMILES notation. Read-outs that look alike come from different tables or passages of the source.

Regarding `COc1cc(N[C@H]2CC[C@@H](NC(=O)c3ccc(F)cc3)CC2)nc(C(F)(F)F)n1` [1-7], the IC50 under setting [1] lay in the range of 1000 to 2500 nM. On the same count and under the same terms, for `CN(C)c1ccc(C(=O)N[C@H]2CC[C@@H](Nc3ccc(C#N)c(C(F)(F)F)c3)CC2)cc1` [1-21] the value was under 100 nM; for `COc1ccc(C(=O)N[C@H]2CC[C@@H](Nc3cc(Nc4cccc(C)c4)nc(C(F)(F)F)c3)CC2)cc1` [Example 9, 4-methoxy-N-[4-[[2-(3-methylanilino)-6-(trifluoromethyl)-4-pyridyl]amino]cyclohexyl]benzamide], 1000 to 2500 nM; for `CC(=O)Nc1ccc(C(=O)N[C@H]2CC[C@@H](Nc3ccc(C#N)c(C(F)(F)F)c3)CC2)cc1` [4-48], under 100 nM. On the same count and under the same terms, for `O=C(N[C@H]1CC[C@@H](Nc2cc(C(F)(F)F)nc(C(F)(F)F)c2)CC1)c1cc2c([nH]1)CCCC2` [4-37] the value was 501 to 1000 nM. The same measure, in the same setting: in the case of `N#Cc1ccc(N[C@H]2CC[C@@H](NC(=O)c3ccnc4cn[nH]c34)CC2)cc1C(F)(F)F` [4-58] it was under 100 nM. `O=C(N[C@H]1CC[C@@H](Nc2cc(C3CC3)nc(C(F)(F)F)c2)CC1)c1ccc(F)cc1` [Example 8, N-(1S, 4S)-[4-[[2-cyclopropyl-6-(trifluoromethyl)-4-pyridyl]amino]cyclohexyl]-4-fluoro-benzamide]: the IC50 under setting [1] lay in the range of 1000 to 2500 nM. The same measure, in the same setting: for `COc1ccc(C(=O)N[C@H]2CC[C@@H](Nc3cc(C(F)(F)F)nc(N(C)C)n3)CC2)cc1` [Example 16, N-(1S,4S)-[4-[[2-(dimethylamino)-6-(trifluoromethyl)pyrimidin-4-yl]amino]cyclohexyl]-4-methoxy-benzamide] the value was 501 to 1000 nM. Same read-out and setting: for `O=C(N[C@H]1CC[C@@H](Nc2cc(C(F)(F)F)nc(C(F)(F)F)c2)CC1)n1cccc1` [4-2] the value was 100 to 500 nM. On the same count and under the same terms, for `N#Cc1ccc(N[C@H]2CC[C@@H](NC(=O)c3csc(N)n3)CC2)cc1C(F)(F)F` [1-15] the value was 100 to 500 nM. Take `COc1ccc(C(=O)N[C@H]2CC[C@@H](Nc3cc(C(F)F)nc(C(F)(F)F)c3)CC2)cc1` [4-43]: under setting [1], the IC50 fell in the range of 100 to 500 nM.

For the molecule `COc1cccc(C(=O)N[C@H]2CC[C@@H](Nc3ccc(C#N)c(C(F)(F)F)c3)CC2)c1` [1-23], under setting [1], the IC50 fell in the range of 100 to 500 nM. For `O=C(N[C@H]1CC[C@@H](Nc2cc(C(F)(F)F)nc(C(F)(F)F)c2)CC1)c1cccc2ncsc12` [4-9], the IC50 under setting [1] was in the range of 100 to 500 nM. The same measure, in the same setting: for `O=C(N[C@H]1CC[C@@H](Nc2cc(C(F)(F)F)nc(C(F)(F)F)c2)CC1)c1ccc2c(c1)CCCC2` [4-42] the value was 501 to 1000 nM; for `CCNc1nc(N[C@H]2CC[C@@H](NC(=O)c3ccc(OC)cc3)CC2)cc(C(F)(F)F)n1` [Example 12, N-(1S,4S)-[4-[[2-(ethylamino)-6-(trifluoromethyl)pyrimidin-4-yl]amino]cyclohexyl]-4-methoxy-benzamide], over 2500 nM; for `O=C(N[C@@H]1CCC[C@H](Nc2cc(C(F)(F)F)nc(C(F)(F)F)c2)C1)c1ccccc1` [Example 2, N-((1R,3S)-3-((2,6-bis(trifluoromethyl)pyridin-4-yl)amino)cyclohexyl)benzamide], over 2500 nM. Same read-out and setting: in the case of `O=C(N[C@H]1CC[C@@H](Nc2cc(C(F)(F)F)cc(C(F)(F)F)c2)CC1)c1ccc(F)cc1` [Example 6, N-((1S,4S)-4-((3,5-bis(trifluoromethyl)phenyl)amino)cyclohexyl)-4-fluorobenzamide] it was 1000 to 2500 nM; in that of `N=C(N)Nc1ccc(C(=O)N[C@H]2CC[C@@H](Nc3cc(C(F)(F)F)nc(C(F)(F)F)c3)CC2)cc1` (single isomer, unassigned) [4-55], under 100 nM. In the case of `CN(C)c1nc(N[C@H]2CC[C@@H](NC(=O)c3ccccc3)CC2)cc(C(F)(F)F)n1` [1-10], the IC50 under setting [1] is 501 to 1000 nM. With `CN(C)c1cccc(C(=O)N[C@H]2CC[C@@H](Nc3cc(C(F)(F)F)nc(C(F)(F)F)c3)CC2)c1` [Example 15, N-(1S,4S)-[4-[[2,6-bis(trifluoromethyl)-4-pyridyl]amino]cyclohexyl]-3-(dimethylamino)benzamide], the IC50 under setting [1] was 100 to 500 nM. Take `N#Cc1ccc(N[C@H]2CC[C@@H](NC(=O)c3cn[nH]c3C#N)CC2)cc1C(F)(F)F` [4-56]: the IC50 under setting [1] was under 100 nM. Still for that read-out and setting: for `Cc1cc(N[C@H]2CC[C@@H](NC(=O)c3ccnc(NC(C)C)c3)CC2)cc(C(F)(F)F)c1C#N` [5-2] the value was under 100 nM; for `N#Cc1ccc(N[C@H]2CC[C@@H](NC(=O)c3cccc4[nH]ccc34)CC2)cc1C(F)(F)F` [1-12], under 100 nM. On the same count and under the same terms, in the case of `Cc1ccoc1C(=O)N[C@H]1CC[C@@H](Nc2cc(C(F)(F)F)nc(C(F)(F)F)c2)CC1` [1-5] it was 1000 to 2500 nM.

`COc1ccc(C(=O)N[C@H]2CC[C@@H](Nc3cc(C(F)(F)F)nc(N(C)C(C)C)n3)CC2)cc1` [3-1]: under setting [1], the IC50 was in the range of 1000 to 2500 nM. On to `Cn1nccc1C(=O)N[C@H]1CC[C@@H](Nc2ccc(C#N)c(C(F)(F)F)c2)CC1` [1-17], for which the IC50 fell in the range of 100 to 500 nM.

Turning to `CN(C)c1ccc(C(=O)N[C@H]2CC[C@@H](Nc3ccc(C#N)c(C(F)(F)F)c3)CC2)c(F)c1` [1-13], the IC50 under setting [1] lay within 100 to 500 nM. Still for that read-out and setting: for `CC(C)S(=O)(=O)Nc1ccc(C(=O)N[C@H]2CC[C@@H](Nc3ccc(C#N)c(C(F)(F)F)c3)CC2)cc1` [1-14] the value was under 100 nM. Turning to `Cc1cc(N[C@H]2CC[C@@H](NC(=O)c3cn(CC(F)F)nc3C)CC2)cc(C(F)(F)F)c1C#N` [5-10], under setting [1], the IC50 was under 100 nM. Regarding `Cn1ccc2c(C(=O)N[C@H]3CC[C@@H](Nc4ccc(C#N)c(C(F)(F)F)c4)CC3)ccnc21` [4-61], the IC50 under setting [1] is under 100 nM.

As for `Cc1cc(C)n(-c2ccc(C(=O)N[C@H]3CC[C@@H](Nc4cc(C(F)(F)F)nc(C(F)(F)F)c4)CC3)cc2)n1` [4-24], under setting [1], the IC50 lay in the range of 501 to 1000 nM. Regarding `CNc1ccc(C(=O)N[C@H]2CC[C@@H](Nc3ccc(C#N)c(C(F)(F)F)c3)CC2)cc1` [4-47], the IC50 under setting [1] was under 100 nM.

For `O=C(N[C@H]1CC[C@@H](Nc2cc(C(F)(F)F)nc(C(F)(F)F)c2)CC1)c1ccc2nccn2c1` [4-39], under setting [1], the IC50 fell in the range of 100 to 500 nM. Same read-out and setting: in the case of `Cc1cc(C(=O)N[C@H]2CC[C@@H](Nc3cc(C)c(C#N)c(C(F)(F)F)c3)CC2)cc(C)n1` [5-1] it was under 100 nM; in that of `N#Cc1ccc(N[C@H]2CC[C@@H](NC(=O)c3cn[nH]c3Cl)CC2)cc1C(F)(F)F` [4-45], under 100 nM; in that of `Cc1cc2c(C(=O)N[C@H]3CC[C@@H](Nc4ccc(C#N)c(C(F)(F)F)c4)CC3)ccnc2[nH]1` [4-60], under 100 nM. On the same count and under the same terms, for `O=C(N[C@H]1CC[C@@H](Nc2cc(Cl)nc(C(F)(F)F)c2)CC1)c1ccc(F)cc1` [Example 7, N-(1S,4S)-[4-[[2-chloro-6-(trifluoromethyl)-4-pyridyl]amino]cyclohexyl]-4-fluoro-benzamide] the value was 501 to 1000 nM. On the same count and under the same terms, in the case of `CN(C)c1nc(N[C@H]2CC[C@@H](NC(=O)c3cccc(C#N)c3)CC2)cc(C(F)(F)F)n1` [4-18] it was 1000 to 2500 nM.

Consider `CN(C)C(=O)N[C@H]1CC[C@@H](Nc2cc(C(F)(F)F)nc(C(F)(F)F)c2)CC1` [4-29], for which the IC50 under setting [1] lay within 1000 to 2500 nM. The same measure, in the same setting: for `COc1ccc(C(=O)N[C@H]2CCC[C@@H](Nc3cc(C(F)(F)F)cc(C(F)(F)F)c3)C2)cc1` (stereo in doubt) [example 5, N-((1S,3R)-3-((3,5-bis(trifluoromethyl)phenyl)amino)cyclohexyl)-4-methoxybenzamide] the value was 1000 to 2500 nM; for `CN1CCCc2ccc(C(=O)N[C@H]3CC[C@@H](Nc4cc(C(F)(F)F)nc(C(F)(F)F)c4)CC3)cc21` [4-15], 1000 to 2500 nM; for `N#Cc1ccc(N[C@H]2CC[C@@H](NC(=O)c3cn[nH]c3C3CC3)CC2)cc1C(F)(F)F` [4-46], under 100 nM. Turning to `CC(C#N)c1cccc(C(=O)N[C@H]2CC[C@@H](Nc3cc(C(F)(F)F)nc(C(F)(F)F)c3)CC2)c1` (stereo partly drawn) [4-11], the IC50 under setting [1] lay in the range of 100 to 500 nM. Still for that read-out and setting: in the case of `Cc1cc(N[C@H]2CC[C@@H](NC(=O)c3cnn(CC(F)(F)F)c3)CC2)cc(C(F)(F)F)c1C#N` [5-5] it was under 100 nM; in that of `O=C(N[C@H]1CC[C@@H](Nc2nc(C(F)(F)F)nc3c2CCCC3)CC1)c1ccc(F)cc1` [1-11], 1000 to 2500 nM. As to `CN(C)c1cccc(C(=O)N[C@H]2CC[C@@H](Nc3ccc(C#N)c(C(F)(F)F)c3)CC2)c1` [1-16], under setting [1], the IC50 lay in the range of 100 to 500 nM. Still for that read-out and setting: in the case of `CN(C)c1ccc(C(=O)N[C@H]2CC[C@@H](Nc3cc(C(F)(F)F)nc(C(F)(F)F)c3)CC2)cc1` [1-2] it was 100 to 500 nM. Regarding `COc1ccc(C(=O)N[C@H]2CC[C@@H](Nc3cc(C(F)(F)F)nc(C(F)(F)F)c3)CC2)cc1` [1-3], the IC50 under setting [1] lay in the range of 100 to 500 nM.
